The text below walks through data of US20070207975A1, “Materials and methods for treating and preventing Her-2/neu overexpressing, FAS-elevated cancer cells” (EVANSTON NORTHWESTERN HEALTHCARE, priority 2006, published 2007).

Assay [1] has as its system p185^Her-2/neu. Particulars: cultured breast cancer cells; exogenous GLA supplementation; reference (16); cited from earlier work.
In assay [2] the test system is p185^Her-2/neu. Kind of assay: In situ immunofluorescent staining of p185Her-2/neu. It is filed as cell-based, human. Particulars: BT-474; 48 hours. An excerpt: FIG. 2. Exogenous supplementation with OA synergistically enhances trastuzumab-induced down-regulation of p185^Her-2/neu. […] The amount of cell surface-associated p185^Her-2/neu was quantified by flow cytometric analyses using a specific antibody against the extracellular domain of p185^Her-2/neu (Ab-5), as described herein. The mean fluorescence signal±SD (n=3) was quantified using the geo mean fluorescence (GM) parameter provided with the Cell Quest Software (Becton Dickinson). […] After labeling, cells were washed thoroughly, and localization of p185^Her-2/neu was detected by indirect immunofluorescence by incubating with FITC-conjugated anti-mouse IgG. After counterstaining with DAPI, cells were examined and photographed using a Zeiss fluorescent microscope equipped with a built-in camera. […] Similar results were obtained in three independent experiments. […] Similar results were obtained in three independent experiments. Cells were seeded at a density of 1×10^4 cells/well in a four-well chamber slide (Nalge Nunc International, Rochester, N.Y.). […] Indirect immunofluorescence was recorded on a Zeiss microscope. […] Thereafter, p185^Her-2/neu cellular localization was assessed using the anti-erbB2, Ab-3 mouse monoclonal antibody (Oncogene Research Products), which is directed against the C-terminal 14 amino acids of p185^Her-2/neu. […]

Take `CCCCCC=CCC=CCC=CCCCCC(=O)O` [GLA, 6,9,12-octadecatrienoic acid]: the “proteolytic cleavage of the extracellular domain of p185^Her-2/neu” value in assay [1] is “significantly diminished”.
In the case of `CCCCCCCCC=CCCCCCCCC(=O)O` [OA, 9-octadecenoic acid], in assay [2], the “p185^Her-2/neu-associated membrane (cell surface) staining” value is “markedly reduced”.
